Source: the NIST ThermoML archive (doi:10.1016/j.jct.2013.10.034)

Assay: xn = mol fraction of the nth substance listed
Details: 100 kPa, Liquid; for viscosity: Falling or rolling sphere viscometry; for mass density: Vibrating tube method

CCCC[N+]1(C)CCCCC1.N#C[N-]C#N [1-butyl-1-methylpiperidinium dicyanamide] + O
Details	mass density, 298.15 K [kg/m3]	mass density, 303.15 K [kg/m3]	mass density, 308.15 K [kg/m3]	mass density, 313.15 K [kg/m3]	mass density, 318.15 K [kg/m3]	viscosity, 298.15 K [mPa·s]	viscosity, 303.15 K [mPa·s]	viscosity, 308.15 K [mPa·s]	viscosity, 313.15 K [mPa·s]	viscosity, 318.15 K [mPa·s]
x1 = 0.0936	1007.95	1004.63	1001.56	998.43	995.26	6.144	5.247	4.529	3.946	3.467
x1 = 0.1748	1011.38	1008.21	1005.06	1001.86	998.67	10.16	8.56	7.3	6.291	5.47
x1 = 0.2651	1013.31	1010.2	1007.08	1004.02	1000.91	16.96	14.05	11.81	10.05	8.651
x1 = 0.3581	1014.27	1011.26	1008.27	1005.25	1002.25	24.65	20.16	16.78	14.16	12.11
x1 = 0.4952	1014.9	1012.13	1009.31	1006.34	1003.45	36.93	29.68	24.59	20.59	17.45
x1 = 0.6246	1015.36	1012.52	1009.93	1007.01	1004.15	49.82	40.79	32.52	27.94	23.32
x1 = 0.7878	1015.65	1012.82	1010.41	1007.53	1004.74	72.53	57.58	46	38.87	32.26
x1 = 0.9216	1015.91	1012.88	1010.57	1007.8	1005.06	103.3	79.12	64.15	51.99	42.71
x1 = 1	1016.13	1012.98	1010.65	1007.92	–	123.3	92.97	75.58	60.93	49.79
